{"source": "paper PMC8869655", "about": "“Identification of the Kinase-Substrate Recognition Interface between MYPT1 and Rho-Kinase” (Biomolecules, 2022)", "molecules": {"B1": {"name": "MYPT1-655-715 aa: GST-fused MYPT1 fragment 655–715 aa (protein, UniProt Q10728 655-715, looked up, fragment)", "chain": "GTLSSTSEVRERRRSYLTPVRDEESESQRKARSRQARQSRRSTQGVTLTDLQEAEKTIGRS", "modifications": "also: GST fusion", "notes": "GST-fused MYPT1 fragment 655–715 aa"}, "B2": {"name": "MYPT1-684–868 aa: GST-fused rat MYPT1 fragment 684–868 aa containing DMs and four phosphorylation sites (protein)", "chain": "KARSRQARQSRRSTQGVTLTDLQEAEKTIGRSRSTRTREQENEEKDKEEKEKQDKEKQEEKKESEVSREDEYKQKYSRTYDETYARYRPVSTSSSSTPSSSSLSTLGSSLYASSQLNRPNSLVGITSAYSRGLTKDNEREGEKKEEEKEGEDKSQPKSIRERRRPREKRRSTGVSFWTQDSDENE", "modifications": "left off: GST, end not stated, kept", "notes": "GST-fused rat MYPT1 fragment 684–868 aa containing DMs and four phosphorylation sites"}}, "key": {"[1]": {"biological_target": "T1, GST-Rho-kinase-cat-L (bovine, residues 6–553) (Bos taurus, UniProt Q28021)", "T1 construct": "GST-Rho-kinase-cat-L (bovine, residues 6–553); made in house; host or cells: Sf9 cells (baculovirus)", "T1 sequence (Q28021 6-553)": "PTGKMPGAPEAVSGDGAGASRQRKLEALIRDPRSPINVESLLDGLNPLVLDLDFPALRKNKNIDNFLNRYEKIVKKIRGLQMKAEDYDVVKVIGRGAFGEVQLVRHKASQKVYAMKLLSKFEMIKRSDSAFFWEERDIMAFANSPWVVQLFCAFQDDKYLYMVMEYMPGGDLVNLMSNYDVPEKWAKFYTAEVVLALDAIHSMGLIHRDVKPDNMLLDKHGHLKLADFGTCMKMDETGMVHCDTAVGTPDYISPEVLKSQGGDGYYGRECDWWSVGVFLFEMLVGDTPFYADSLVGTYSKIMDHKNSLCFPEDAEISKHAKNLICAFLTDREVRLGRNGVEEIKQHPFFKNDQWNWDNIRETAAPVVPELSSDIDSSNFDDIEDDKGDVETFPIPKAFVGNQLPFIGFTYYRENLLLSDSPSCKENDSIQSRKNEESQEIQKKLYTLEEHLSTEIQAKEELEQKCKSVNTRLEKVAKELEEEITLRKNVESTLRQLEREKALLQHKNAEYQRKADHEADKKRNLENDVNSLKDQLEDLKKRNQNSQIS", "test": "In vitro kinase assay, Rho-kinase-cat-L activity", "assay_type": "biochemical", "conditions": "for Inhibition of Rho-kinase-cat-L activity (in words) / IC50: S6 rsk substrate peptide as substrate, 50 μM γ-[32P]ATP, 30 °C, scintillation counting, N = 3; for Inhibition of Rho-kinase-cat-L activity (in words): inhibitor at the indicated concentrations; for IC50: 10–20 min, cation-exchange membrane", "description": "The kinase reactions were performed in 50 μL of a reaction mixture (25 mM Tris-HCl, pH 7.5, 1 mM EDTA, 1 mM EGTA, 1 mM DTT, 5 mM MgCl2, and 50 μM γ-[^32P]ATP [1–20 GBq/mmol]), GST-Rho-kinase-cat-L or other kinases (1–10 nM), and substrates for 10–20 min at 30 °C. The reaction mixtures were applied to cation-exchange membranes and washed with 75 mM phosphoric acid three times, which was followed by scintillation counting.\nFigure 4 Direct inhibition of Rho-kinase activity in vitro. (A) In vitro phosphorylation of S6 rsk substrate peptide by Rho-kinase. GST-Rho-kinase-cat-L or GST-ROCK1-cat-L activity was examined using the S6 rsk substrate peptide as a substrate in the presence of γ-[^32P]ATP. GST-MYPT1-684–868 aa-WT or -4A was added at the indicated concentrations. The reaction mixtures were applied onto cation-exchange membranes, followed by scintillation counting. N = 3. (B) Effects of the deletion of DMs on the inhibition of Rho-kinase activity in vitro. GST-Rho-kinase-cat-L activity was examined using the S6 rsk substrate peptide as a substrate in the presence of γ-[^32P]ATP. GST-MYPT1-684–868-4A with or without DMs was added at the indicated concentrations. The reaction mixtures were applied onto cation-exchange membranes, followed by scintillation counting. N = 3. The deletion of DM1 or DM2 moderately weakened the inhibitory effect and the deletion of both DM1 and DM2 completely abrogated the inhibitory effects of the MYPT1 fragment on the Rho-kinase activity. (C) Sequences of the DMs and phosphorylation sites of MYPT1. The sequences of MYPT1 683–715 aa and 836-860 aa and synthetic peptides are shown. Basic (blue), acidic (red), and aliphatic (green) amino acids within DMs are indicated. Phosphorylation sites are replaced by Ala in pseudosubstrate (PS) peptides. (D) Inhibition of Rho-kinase activity by PS2 + DM2 synthetic peptide. GST-Rho-kinase-cat-L activity was examined using the S6 rsk substrate peptide as a substrate in the presence of γ-[^32P]ATP. Synthetic peptides were added at the indicated concentrations. The reaction mixtures were applied onto cation-exchange membranes, followed by scintillation counting. N = 3. (E) Inhibition of Rho-kinase activity by PS1 + DM3 synthetic peptide. GST-Rho-kinase-cat-L activity was examined using the S6 rsk substrate peptide as a substrate in the presence of γ-[^32P]ATP. Synthetic peptides were added at the indicated concentrations. The reaction mixtures were applied onto cation-exchange membranes, followed by scintillation counting. N = 3."}, "[2]": {"biological_target": "T1, GST-Rho-kinase-cat-L (bovine, residues 6–553)", "test": "In vitro kinase assay, Rho-kinase-cat-L activity", "assay_type": "biochemical", "conditions": "synthetic peptide at the indicated concentrations, Figure S4, N=3"}, "NIH3T3 cells": {"system": "NIH3T3 cells", "test": "Actin stress fiber formation in NIH3T3 cells", "assay_type": "cell-based", "conditions": "GST-MYPT1 fragment expressed in NIH3T3 cells, 24 h, phalloidin staining, N = 4", "description": "NIH3T3 cells were seeded on polylysine-coated 13-mm coverslips at a density of 4 × 10^4 cells/well in a 6-well dish and cultured in DMEM with 10% calf serum overnight. The cells were transfected with plasmid using LIPOFECTAMINE LTX reagent (Thermo Fisher Scientific, Waltham, MA, USA), according to the manufacture’s protocol. After 24 h, the cells were incubated in fresh DMEM containing 10% calf serum for 20 min, fixed with 3.7% formaldehyde in PBS for 10 min and then treated with PBS containing 0.2% Triton X-100 for 10 min. The fixed cells were blocked with 1% bovine serum albumin for 30 min and stained with the indicated antibodies. Cover slips were mounted with Fluoromount (Diagnostic Biosystems, Pleasanton, CA, USA) and the fluorescence was examined using a confocal laser scanning microscope LSM 780 and LSM5 PASCAL built around an Axio Observer Z1 or Axiovert 200M under the control of LSM software (Carl Zeiss, Oberkochen, Germany). Images were processed using ImageJ or Photoshop (Adobe, San Jose, CA, USA).\nFigure 3 Inhibition of MYPT1 phosphorylation by the Rho-kinase-binding fragment of MYPT1. (A,B) Effect of the overexpression of Rho-kinase-binding MYPT1 fragments on GFP-MYPT1 phosphorylation in COS7 cells. Full-length GFP-MYPT1 and the GST-MYPT1 Rho-kinase binding fragment were transiently expressed in COS7 cells. The cell lysates were analyzed by immunoblot analysis using anti-MYPT1-pT855 (top panel), anti-GFP (middle), or anti-GST (bottom) antibodies. The phospho-GFP-MYPT1 levels were quantified and normalized by GFP-MYPT1 levels. Data represent means ± SD. **, p < 0.01, ***, p < 0.001 as compared with the control. (C) Effect of the overexpression of Rho-kinase-binding MYPT1 fragments on stress fiber formation in NIH3T3 cells. GST-MYPT1 fragments were expressed in NIH3T3 cells. The cells were fixed in formaldehyde, and immunostained with phalloidin and anti-GST antibody. […] The percentages of cells with stress fibers throughout the cell (SF(++)), cells with stress fibers partly in the cell (SF(+)), and cells without stress fibers (SF(–)) were analyzed. […]"}, "[3]": {"system": "phosphorylation of GFP-MYPT1 at Thr855 in COS7 cells", "test": "Phosphorylation of GFP-MYPT1 in COS7 cells", "assay_type": "cell-based", "conditions": "GST-MYPT1 fragment coexpressed with full-length GFP-MYPT1 in COS7 cells, 24 h, immunoblot anti-MYPT1-pT855 normalized by GFP-MYPT1", "description": "COS7 cells were seeded on a 6-well dish at a density of 1.8 × 10^5 cells/well in DMEM with 10% fetal bovine serum and cultured overnight. The cells were transfected with plasmids using LIPOFECTAMINE 2000^TM reagent, according to the manufacture’s protocol. After 24 h, the cells were washed twice with PBS, lysed in SDS–PAGE sample buffer and, subjected to immunoblot analysis using the indicated antibodies. The signals were visualized using HRP-conjugated secondary antibody and ECL prime detecting reagent (Cytiva, Marlborough, MA, USA) by X-lay film or imaging analyzer LAS 4010 (Cytiva, Marlborough, MA, USA). Signal intensities of phospho-GFP-MYPT1 and GFP-MYPT1 were analyzed using Fiji software and quantified from standard curves. The phospho-GFP-MYPT1 levels were normalized by GFP-MYPT1 levels.\nFigure 3 Inhibition of MYPT1 phosphorylation by the Rho-kinase-binding fragment of MYPT1. […] The cell lysates were analyzed by immunoblot analysis using anti-MYPT1-pT855 (top panel), anti-GFP (middle), or anti-GST (bottom) antibodies. The phospho-GFP-MYPT1 levels were quantified and normalized by GFP-MYPT1 levels. […] The percentages of cells with stress fibers throughout the cell (SF(++)), cells with stress fibers partly in the cell (SF(+)), and cells without stress fibers (SF(–)) were analyzed. […]"}, "[4]": {"biological_target": "GFP-Rho-kinase-cat-L (6–553 aa, long form of catalytic fragment) (bovine)"}}, "note": "Residues, ends and D or L forms follow the SMILES beside them. No end group written: not given here.", "data": [{"molecule": "QSRRAAQGVTLTDLQEAEKTIGRS [PS1 + DM1, synthetic peptide, MYPT1 692–715 aa, pseudosubstrate 1 plus docking motif 1]", "values": [{"measurement": "Inhibition of Rho-kinase activity at higher concentration (in words)", "setting": "[1]; 100 μM peptide, data not shown", "result": "mild inhibitory effect"}, {"measurement": "Inhibition of Rho-kinase-cat-L activity (in words)", "setting": "[1]", "result": "did not show an inhibitory effect"}]}, {"molecule": "CC[C@H](C)[C@H](NC(=O)[C@H](CO)NC(=O)[C@H](CCCCN)NC(=O)[C@@H]1CCCN1C(=O)[C@H](CCC(N)=O)NC(=O)[C@H](CO)NC(=O)[C@@H](N)CCCCN)C(=O)N[C@@H](CCCNC(=N)N)C(=O)N[C@@H](CCC(=O)O)C(=O)N[C@@H](CCCNC(=N)N)C(=O)N[C@@H](CCCNC(=N)N)C(=O)N[C@@H](CCCNC(=N)N)C(=O)N1CCC[C@H]1C(=O)N[C@@H](CCCNC(=N)N)C(=O)N[C@@H](CCC(=O)O)C(=O)N[C@@H](CCCCN)C(=O)N[C@@H](CCCNC(=N)N)C(=O)N[C@@H](CCCNC(=N)N)C(=O)N[C@@H](C)C(=O)N[C@@H](C)C(=O)NCC(=O)N[C@H](C(=O)N[C@@H](CO)C(=O)N[C@@H](Cc1ccccc1)C(=O)N[C@@H](Cc1c[nH]c2ccccc12)C(=O)O)C(C)C", "note": "[PS2 + DM2] (H-KSQPKSIRERRRPREKRRAAGVSFW-OH; N-terminus and C-terminus assumed)", "values": [{"measurement": "IC50", "setting": "[1]", "result": "< 1000", "unit": "nM"}, {"measurement": "Inhibition of Rho-kinase-cat-L activity (in words)", "setting": "[1]", "result": "strongly inhibited"}, {"measurement": "Inhibition of phosphorylation of MLC by Rho-kinase", "setting": "[2]; substrate GST-MLC (1 µM)", "result": "inhibited"}, {"measurement": "Inhibition of phosphorylation of MYPT1 by Rho-kinase", "setting": "[2]; substrate GST-MYPT1-684-868 aa (0.5 µM)", "result": "inhibited"}, {"measurement": "Inhibition of phosphorylation of Scrib by Rho-kinase", "setting": "[2]; substrate GST-Scrib-C (1235-1630 aa) (1 µM)", "result": "inhibited"}]}, {"molecule": "CC(C)C[C@H](NC(=O)[C@@H](NC(=O)[C@@H](NC(=O)CNC(=O)[C@H](CCC(N)=O)NC(=O)[C@H](C)NC(=O)[C@H](C)NC(=O)[C@H](CCCNC(=N)N)NC(=O)[C@H](CCCNC(=N)N)NC(=O)[C@H](CO)NC(=O)[C@H](CCC(N)=O)NC(=O)[C@H](CCCNC(=N)N)NC(=O)[C@H](C)NC(=O)[C@H](CCC(N)=O)NC(=O)[C@H](CCCNC(=N)N)NC(=O)[C@H](CO)NC(=O)[C@H](CCCNC(=N)N)NC(=O)[C@H](C)NC(=O)[C@H](CCCCN)NC(=O)[C@@H](N)CCCNC(=N)N)C(C)C)[C@@H](C)O)C(=O)N[C@H](C(=O)O)[C@@H](C)O", "note": "[PS1 + DM3] (H-RKARSRQARQSRRAAQGVTLT-OH; N-terminus and C-terminus assumed)", "values": [{"measurement": "IC50", "setting": "[1]", "result": "< 1000", "unit": "nM"}, {"measurement": "Inhibition of Rho-kinase-cat-L activity (in words)", "setting": "[1]", "result": "inhibited Rho-kinase activity to a similar extent as PS2 + DM2"}]}, {"molecule": "KSQPKSIRERRRPR [DM2, synthetic peptide, MYPT1 836–849 aa, docking motif 2]", "values": [{"measurement": "Inhibition of Rho-kinase-cat-L activity (in words)", "setting": "[1]", "result": "moderately inhibited"}]}, {"molecule": "B1", "values": [{"measurement": "Effect on actin stress fiber formation", "setting": "NIH3T3 cells", "result": "rather enhanced stress fiber formation"}, {"measurement": "Effect on phosphorylation of GFP-MYPT1 at Thr855", "setting": "[3]", "result": "decreased the phosphorylation of MYPT1"}]}, {"molecule": "RKARSRQARQSRRAAQGVTLT (not fully specified)", "note": "[PS1 + DM3 synthetic peptide (MYPT1 683–703 aa)]", "values": [{"measurement": "IC50 of inhibition of the in vitro kinase activity of GST-Rho-kinase-cat-L on the S6 rsk substrate peptide (Figure 4E)", "setting": "[4]", "result": "< 1000", "unit": "nM"}]}, {"molecule": "B2", "values": [{"measurement": "Effect on actin stress fiber formation", "setting": "NIH3T3 cells", "result": "reduced actin stress fibers"}, {"measurement": "Inhibition of Rho-kinase-cat-L activity (in words)", "setting": "[1]", "result": "inhibited the Rho-kinase-cat-L activity in a dose-dependent manner"}, {"measurement": "Effect on phosphorylation of GFP-MYPT1 at Thr855", "setting": "[3]", "result": "strongly inhibited"}]}, {"molecule": "KSQPKSIRERRRPREKRRAAGVSFW (not fully specified)", "note": "[PS2 + DM2 synthetic peptide (MYPT1 836–860 aa)]", "values": [{"measurement": "IC50 of inhibition of the in vitro kinase activity of GST-Rho-kinase-cat-L on the S6 rsk substrate peptide (Figure 4D)", "setting": "[4]", "result": "< 1000", "unit": "nM"}]}]}
